pEC50, pKi: −log10 of the molar value. Where two headings read alike, the source gives them in different places.

Broadly, the pKi is the Ki on a negative log10 scale, so that one unit is a factor of ten. As a reminder, the pEC50 is the negative decadic logarithm of the EC50, by convention in mol/L.

Test [1] addresses T1, CB1 receptor (Rattus norvegicus, UniProt P20272).
T1 construct: Whole rat brains or dissected regions from live CD rats; tissue Charles River or Pel-Freez Biologicals; host or cells: whole rat brain (CD rats), P2 membrane
The test is described as follows: Radioligand displacement in whole rat brain (CB1) membrane preparations. The class given is binding. An excerpt:
CB1 receptor affinity in rat brain.
Methods—membrane preparation from brain. The methods for tissue preparation are essentially those described by Devane et al. (1988) as modified by Compton et al. (1993) and later by Thomas et al. (1998). Whole rat brains or dissected regions from live CD rats from Charles River or Pel-Freez Biologicals (Rogers, Ark.), or human brain sections obtained from the National Disease Research Institute, were allowed to thaw to room temperature on ice. Both whole brain and dissected brain regions were used because different brain regions may express different cannabinoid receptor subtypes (Skaper et al., 1996; Thomas et al., 1998). The tissue was homogenized with a Kontes Potter-Elvehjem glass-Teflon grinding system (Fisher Scientific, Springfield, N.J.) in buffer 1 (320 mM sucrose, 2 mM EDTA, 5 mM MgCl2. The homogenate was centrifuged at 1600 g for 10 min. The supernatant was saved and combined with the two subsequent supernatants obtained from washing and 1600 g centrifugation of the P1 pellet. The combined supernatant fractions were then centrifuged at 39,000 g for 15 min. The P2 pellet was resuspended in 50 mL of buffer 2 (50 mM Tris.HCl, 2 mM EDTA, 5 mM MgCl2, pH 7.0), incubated at 37° C. for 10 min, then centrifuged at 23,000 g for 10 min. The P2 membrane was resuspended in 50 mL of buffer 2, incubated at 30° C. for 40 min, then centrifuged at 11,000 g for 15 min. The final wash-treated P2 pellet was resuspended in assay buffer 3 (50 mM Tris.HCl, 1 mM EDTA, 3 MM MgCl2, pH 7.4). Protein concentrations were determined by the method of Bradford (1976) using Coomassie brilliant blue dye (Bio-Rad, Richmond, Calif.) and BSA standards (bovine serum albumin, fatty acid free, Sigma Chemical Co., St. Louis, Mo.) prepared in assay buffer 3. The membrane preparation was divided into aliquots and stored at −80° C. For use in the binding assay, an aliquot of frozen membranes was thawed on ice and diluted to a concentration of ca. 0.2 mg/mL in assay buffer.
Methods—binding assay in brain membrane preparation. The methods for ligand binding are essentially those described by Devane et al. (1988) with the exception that we used a filtration assay. […] All cannabinoid analogs were prepared by suspension in buffer A from a 1-5 mg/mL ethanolic stock. Following incubation at 30° C. for 1 h, binding was terminated by vacuum filtration through pretreated filters in a 96-well sampling manifold (Millipore, Bedford, Mass.). Reaction vessels were washed at least 3 times with 1 mL of ice cold buffer B (50 mM Tris.HCl, 1 mg/mL BSA). The filter plates were air-dried and sealed on the bottom. Liquid scintillant was added to the wells and the top sealed. After incubating the plates in cocktail for at least 2 h, the radioactivity present was determined by liquid scintillation spectrometry. Assays were done in duplicate, and results represent the combined data of three to six independent experiments. All assays were performed in polypropylene test tubes. The GF/C glassfiber filter plates (Packard, Meriden, Conn.) were pretreated in buffer B for at least 1 h.
(§1) Data analysis. Saturation and displacement data were analyzed by unweighted nonlinear regression of receptor binding data. For displacement studies, curve-fitting and IC50 calculation were done with GraphPad Prism (GraphPad Software, Inc., San Diego, Calif.), which fits the data to one and two-site models and compares the two fits statistically. A similar approach was used for the analysis of isotherm data for calculation of Kd's. A two-site fit was accepted only if it was statistically significant (p<0.05) and the following results were not observed:
(§2) IC50 values were then converted to Ki values by reported methods (Cheng and Prusoff, 1973). The statistical evaluation of curve-fitting data allowed for a non-arbitrary conclusion based on the displacement data.
On the technique in general: Loss of bound radioactivity is the signal in a displacement assay; it reports binding, not function.

Test [2] addresses T2, human CB1 receptor (Homo sapiens, UniProt P21554).
T2 construct: expressed in transfected cells; host or cells: HEK-293
The test is described as follows: Radioligand displacement in human CB1 receptor-transfected cells (HEK-293). In kind it is binding. Conditions: Table 5, parallel synthesis analogs; for pKi: Ki, concentration assumes 100% yield. The procedure: Human CB1 receptor affinity. The alkyl amide analogs of the present invention were examined using transfected cell lines expressing the human CB1 receptor (Table 3).
(§3) Methods—binding assay in transfected cell lines. The methods used for performing binding assays in transfected cells expressing human CB1 or CB2 receptors are those used above. The CB1 receptor involved a HEK-293 expression system whereas the CB2 receptor was expressed in CHO-K1 cells. […] The incubations and separations were then performed as described above for rat brain membrane preparations.
as §1, §2

Test [3] concerns the target T3, human CB2 receptor (Homo sapiens, UniProt P34972).
T3 construct: expressed in transfected cells; host or cells: CHO-K1
The test is described as follows: Displacement of 3H-CP55,940 in human CB2 receptor-transfected cells (CHO-K1). In kind it is binding. The following applies: human CB2 transfected cells, radioligand 3H-CP55940, Tables 6 and 7. The method, then:
Human CB2 receptor affinity. The relative selectivity of the analogs for CB1 versus CB2 receptors varied modestly regardless of the structural modifications examined to date.
as §3, §1, §2

In test [4] the target is T4, G-protein-linked cannabinoid receptors (Rattus norvegicus, UniProt P20272).
T4 construct: tissue Charles River or Pel-Freez Biologicals; host or cells: whole rat brain crude membrane homogenate
The test is described as follows: GTP-γ-[35S] binding in whole rat brain. The class given is biochemical. The following applies: whole rat brain membranes. An excerpt:
Cannabinoid receptor-mediated alteration in GTP-γ-[^35S] binding.
Introduction. The purpose of this assay was to characterize the functional activity of lead compounds identified by the radioligand competition binding assays described above. Data from the GTP-γ-[^35S] binding assay was used to determine if a compound was an agonist, antagonist or inverse agonist at G-protein-linked cannabinoid receptors. Agonist binding to a G-protein-linked receptor results in an increased affinity of the G-protein α-subunit for GTP relative to GDP. Eventually, an active αGTP complex forms to complete the stimulus-effector coupling. The α-subunit has intrinsic GTPase activity which generates a free α-subunit which can recombine with the β- and γ-subunits readying the G-protein for another signal transduction cycle. In the current assay, GTP-γ-[^35S] cannot be hydrolyzed by the α-subunit. Thus, the amount of bound GTP-γ-[^35S] is a marker for G-protein activation. In this assay, an agonist increases basal GTP-γ-[^35S] binding, an inverse agonist decreases basal binding and basal binding would be unaffected by an antagonist.
Experimental Design. The specific binding of GTP-γ-[^35S], in the absence of test compound, was termed “basal” activity. Test compounds were characterized as agonist, antagonist, or inverse agonist based on their effect on basal activity. […] The concentrations spanned two orders of magnitude because affinity may not be related to efficacy. […] Effects of the test compounds are reported as the percent change from basal. More thorough dose-response analysis may be run to determine, for example, if a compound is a full or partial agonist.
Methods. […] In a final volume of 0.5 mL, each assay tube contained: 0.02 mg crude membrane homogenate (0.1 mL), 200 μM GDP (0.05 mL; to reduce basal G-protein activity), 0.1 nM GTP-γ-[^35S] (0.05 mL) and several concentrations of test compound (0.05 mL) or an equivalent volume of vehicle (used for determination of total binding). Nonspecific binding was determined in the presence of 100 μM unlabeled GTP-γ-S (0.05 mL). Duplicate samples were incubated for 1 h at 30° C. Since this assay is amenable for use with high throughput screening methods, the binding assays were run using a 96-well plate format. Specific binding was calculated as total binding-nonspecific binding.

Setting [5] is: Ki, displacement of 3H-CP55940, whole rat brain, 3H-CP55940, Table 4, parallel synthesis analogs, n = 1, concentration assumes 100% yield.
The mark [6] stands for this setting: Ki, displacement of 3H-SR141716A, whole rat brain, 3H-SR141716A, Table 4, parallel synthesis analogs, n = 1, concentration assumes 100% yield.
[7] abbreviates: Ki, displacement of 3H-WIN55212-2, whole rat brain, 3H-WIN55212-2, Table 4, parallel synthesis analogs, n = 1, concentration assumes 100% yield.
The mark [8] stands for this setting: whole rat brain, 3H-CP55940, Table 4, parallel synthesis analogs, n = 1.
The mark [9] stands for this setting: whole rat brain, 3H-SR141716A, Table 4, parallel synthesis analogs, n = 1.
[10] abbreviates: whole rat brain, 3H-WIN55212-2, Table 4, parallel synthesis analogs, n = 1.
[11] abbreviates: displacement of 3H-CP55940, human CB1 transfected cells, 3H-CP55940.
[12] abbreviates: displacement of 3H-SR141716A, human CB1 transfected cells, 3H-SR141716A.
[13] abbreviates: displacement of 3H-WIN55212-2, human CB1 transfected cells, 3H-WIN55212-2.
Setting [14] is: human CB1 transfected cells, 3H-CP55940.
The mark [15] stands for this setting: human CB1 transfected cells, 3H-SR141716A.
The mark [16] stands for this setting: human CB1 transfected cells, 3H-WIN55212-2.

T1 sequence (P20272 whole entry): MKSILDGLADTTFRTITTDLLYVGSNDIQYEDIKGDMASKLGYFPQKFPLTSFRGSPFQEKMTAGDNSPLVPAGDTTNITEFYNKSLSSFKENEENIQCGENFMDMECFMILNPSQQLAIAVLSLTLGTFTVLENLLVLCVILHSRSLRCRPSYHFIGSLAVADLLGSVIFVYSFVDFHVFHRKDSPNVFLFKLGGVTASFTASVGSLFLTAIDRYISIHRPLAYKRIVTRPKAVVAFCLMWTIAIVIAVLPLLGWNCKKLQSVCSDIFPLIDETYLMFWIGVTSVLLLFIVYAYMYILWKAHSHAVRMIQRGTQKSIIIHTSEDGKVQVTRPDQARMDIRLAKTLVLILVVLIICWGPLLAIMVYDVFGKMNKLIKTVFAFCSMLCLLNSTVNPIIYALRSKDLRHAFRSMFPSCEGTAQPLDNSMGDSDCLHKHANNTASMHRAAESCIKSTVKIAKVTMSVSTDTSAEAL
T2 sequence (P21554 whole entry): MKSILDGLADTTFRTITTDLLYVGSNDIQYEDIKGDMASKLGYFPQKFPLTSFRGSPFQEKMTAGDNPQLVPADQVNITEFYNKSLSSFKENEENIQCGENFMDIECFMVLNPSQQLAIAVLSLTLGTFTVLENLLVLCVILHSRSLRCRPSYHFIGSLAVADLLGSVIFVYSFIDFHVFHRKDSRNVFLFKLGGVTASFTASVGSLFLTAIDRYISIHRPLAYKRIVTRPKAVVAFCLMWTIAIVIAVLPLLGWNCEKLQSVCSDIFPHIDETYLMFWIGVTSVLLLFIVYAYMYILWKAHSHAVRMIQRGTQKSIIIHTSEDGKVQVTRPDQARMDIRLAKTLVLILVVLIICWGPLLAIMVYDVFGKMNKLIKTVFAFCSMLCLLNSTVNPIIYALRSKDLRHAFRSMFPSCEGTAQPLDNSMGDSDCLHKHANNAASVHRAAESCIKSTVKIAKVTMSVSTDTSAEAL
T3 sequence (P34972 whole entry): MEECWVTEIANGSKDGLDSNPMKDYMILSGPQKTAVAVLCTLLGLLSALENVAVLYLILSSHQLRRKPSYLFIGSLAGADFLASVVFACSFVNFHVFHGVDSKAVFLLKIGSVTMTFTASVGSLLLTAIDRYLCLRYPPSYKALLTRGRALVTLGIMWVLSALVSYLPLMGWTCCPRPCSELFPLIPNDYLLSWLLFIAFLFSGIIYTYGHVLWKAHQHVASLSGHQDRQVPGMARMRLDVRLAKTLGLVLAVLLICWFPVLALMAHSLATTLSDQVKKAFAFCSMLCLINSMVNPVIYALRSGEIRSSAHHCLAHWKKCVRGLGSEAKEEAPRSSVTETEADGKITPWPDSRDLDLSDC
T4 sequence (P20272 whole entry): as the sequence (P20272 whole entry) above

For `CCCCCCCCCCCCCNC(=O)c1nn(-c2ccc(Cl)cc2Cl)c(-c2ccc(Cl)cc2)c1C` [BT-6], the pKi in test [1] (setting [5]) was 6.31; in test [1] (setting [6]), 6.76; in test [1] (setting [7]), 6.31; in test [2] (setting [11]) it was 6.70; in test [2] (setting [12]) it was 8.38; in test [2] (setting [13]), 6.76. Further, the “Max. Disp. %, 3H-CP55940” value was determined as 79.3% in test [1] (setting [8]) and 75.9% in test [2] (setting [14]). Besides, the entries for the “Max. Disp. %, 3H-SR141716A” value in test [1] (setting [9]) and in test [2] (setting [15]) were 97.6% and 91.3%, respectively. The “Max. Disp. %, 3H-WIN55212-2” value in test [1] (setting [10]) is 80.5%; in test [2] (setting [16]), 94.9%.

Consider `CCCCCCCCCCCNC(=O)c1nn(-c2ccc(Cl)cc2Cl)c(-c2ccc(Cl)cc2)c1C` [BT-7], for which the pKi in test [1] (setting [5]) is 6.77; in test [1] (setting [6]) it was 7.59; in test [1] (setting [7]), 6.56; in test [2] (setting [11]), 7.34; in test [2] (setting [12]), 8.28; in test [2] (setting [13]), 7.93. In addition, the “Max. Disp. %, 3H-CP55940” value is 86.4% in test [1] (setting [8]) and 82.4% in test [2] (setting [14]). The “Max. Disp. %, 3H-SR141716A” value in test [1] (setting [9]) was 83.8%; in test [2] (setting [15]), 96.9%. Also, the figures for the “Max. Disp. %, 3H-WIN55212-2” value in test [1] (setting [10]) and in test [2] (setting [16]) were 90.3% and 54.9%, respectively.

`Cc1c(C(=O)NO)nn(-c2ccc(Cl)cc2Cl)c1-c1ccc(Cl)cc1` [MF9725-131-25]: the pKi in test [1] (read-out: Ki, displacement of 3H-CP55940, whole rat brain membranes, radioligand 3H-CP55940, Tables 1 and 2) was 5.77; in test [1] (read-out: Ki, displacement of 3H-SR141716A, whole rat brain membranes, radioligand 3H-SR141716A, Tables 1 and 2), 5.81; in test [3] (read-out: Ki, displacement of 3H-CP55940), 5.11. Also, the “Max. Disp. %, 3H-CP55940” value in test [1] (whole rat brain membranes, radioligand 3H-CP55940, Tables 1 and 2) is 58.4%; in test [3], 27.0%. The “Max. Disp. %, 3H-SR141716A” value in test [1] (whole rat brain membranes, radioligand 3H-SR141716A, Tables 1 and 2) is given as 65.7%.

For `Cc1c(C(=O)NN2CCCCC2)nn(-c2ccccc2)c1-c1ccc(Cl)cc1` [MF9879-64-23], the “Emax, GTP-γ-[35S] in Whole Rat Brain” value in test [4] (effects reported as percent change from basal) is reported as −47.2. Moreover, the pEC50 in test [4] (inverse agonist/antagonist activity, read-out: EC50, GTP-γ-[35S] in Whole Rat Brain) is 3.44.

The record behind these values is patent publication US6825209B2, “Compounds having unique CB1 receptor binding selectivity and methods for their production and use” (Research Triangle Institute, priority 2002, dated 2004).
